Measured values: patent publication US11136313B2, “Compounds, compositions, and methods for modulating CFTR” (Proteostasis Therapeutics, Inc., priority 2015, dated 2021)

These compounds were tested against T1, ΔF508-CFTR (Homo sapiens, UniProt P13569, DEL508-508) (assay: hBE equivalent current (Ieq) assay: AUC of equivalent chloride current after forskolin/VX-770 in primary lung epithelial cells homozygous for ΔF508). Conditions: relative to CFTR amplifier (Compound A)+VX-809 (3 uM), compound at 10 uM and Compound A at 3 uM, 24 h treatment.
T1 construct: Primary lung epithelial cells homozygous for the Cystic Fibrosis-causing ΔF508 mutation were differentiated for a minimum of 4 weeks; endogenous in cells; host or cells: primary lung epithelial cells (hBE) homozygous for ΔF508, differentiated at an air-liquid interface
T1 sequence (P13569 with tags, fused parts or gaps DEL508-508): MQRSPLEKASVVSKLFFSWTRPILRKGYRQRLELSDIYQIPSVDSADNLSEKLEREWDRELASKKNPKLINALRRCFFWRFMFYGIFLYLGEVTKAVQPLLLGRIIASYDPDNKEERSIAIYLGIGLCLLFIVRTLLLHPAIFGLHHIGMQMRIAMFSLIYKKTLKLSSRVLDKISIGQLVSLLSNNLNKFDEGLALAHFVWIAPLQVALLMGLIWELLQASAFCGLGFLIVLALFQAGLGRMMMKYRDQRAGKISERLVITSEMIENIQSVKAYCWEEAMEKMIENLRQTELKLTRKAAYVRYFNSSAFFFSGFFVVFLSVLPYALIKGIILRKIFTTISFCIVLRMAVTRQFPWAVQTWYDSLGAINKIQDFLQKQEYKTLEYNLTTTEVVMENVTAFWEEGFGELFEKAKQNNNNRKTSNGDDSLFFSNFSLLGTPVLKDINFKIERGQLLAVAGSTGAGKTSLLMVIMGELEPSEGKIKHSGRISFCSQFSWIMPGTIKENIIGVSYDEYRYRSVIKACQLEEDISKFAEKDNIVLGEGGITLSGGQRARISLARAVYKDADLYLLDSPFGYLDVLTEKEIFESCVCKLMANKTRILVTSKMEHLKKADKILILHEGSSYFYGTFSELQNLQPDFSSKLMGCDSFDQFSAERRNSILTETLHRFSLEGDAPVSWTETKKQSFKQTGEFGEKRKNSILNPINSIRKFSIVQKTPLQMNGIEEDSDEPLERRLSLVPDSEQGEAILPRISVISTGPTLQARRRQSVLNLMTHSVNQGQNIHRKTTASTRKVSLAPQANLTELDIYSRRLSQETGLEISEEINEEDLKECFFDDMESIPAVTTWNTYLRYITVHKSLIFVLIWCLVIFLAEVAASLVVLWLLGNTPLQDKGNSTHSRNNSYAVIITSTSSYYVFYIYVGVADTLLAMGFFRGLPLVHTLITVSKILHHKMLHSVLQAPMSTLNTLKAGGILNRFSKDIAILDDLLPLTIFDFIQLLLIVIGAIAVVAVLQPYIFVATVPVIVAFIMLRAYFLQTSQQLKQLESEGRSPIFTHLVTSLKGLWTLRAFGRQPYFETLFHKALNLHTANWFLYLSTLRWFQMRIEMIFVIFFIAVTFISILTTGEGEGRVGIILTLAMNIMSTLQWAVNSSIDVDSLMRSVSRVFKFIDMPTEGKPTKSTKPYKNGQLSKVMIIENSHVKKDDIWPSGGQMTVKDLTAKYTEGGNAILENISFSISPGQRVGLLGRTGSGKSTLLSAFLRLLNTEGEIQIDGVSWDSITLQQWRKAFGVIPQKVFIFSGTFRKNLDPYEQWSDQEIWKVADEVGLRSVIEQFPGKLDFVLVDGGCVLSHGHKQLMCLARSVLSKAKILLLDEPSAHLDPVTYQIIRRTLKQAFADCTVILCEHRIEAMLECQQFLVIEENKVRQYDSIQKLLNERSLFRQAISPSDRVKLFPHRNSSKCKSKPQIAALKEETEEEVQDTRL
Assay type: cell-based
Summary of the method: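 ΔF508/ΔF508 primary human bronchial epithelia, differentiated ≥4 weeks at air-liquid interface, treated basolaterally with compound for 24 h at 37 °C. Transepithelial voltage and conductance by 24-channel current clamp at 36 °C: benzamil, then forskolin plus VX-770 for 27 min, then bumetanide; AUC of equivalent chloride current over vehicle.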
With `Cc1c(-c2cc(C(=O)[O-])c3c(OCC4CCC5(CC4)COC5)ccc(C)c3n2)sc2ccccc12.[Na+]` [Compound 384] the Activity was “++ (activity>50% of CFTR amplifier+VX-809 (3 uM) with compound at 10 uM and Compound A at 3 uM)”.
In the case of `CO[C@]1(C)CC[C@H](COc2ccc(C)c3nc(-c4oc5ccccc5c4C)cc(C(=O)[O-])c23)CC1.[Na+]` [Compound 387], the Activity is reported as “++ (activity>50% of CFTR amplifier+VX-809 (3 uM) with compound at 10 uM and Compound A at 3 uM)”.
For `CO[C@]1(C)CC[C@@H](COc2ccc(C)c3nc(-c4oc5ccccc5c4C)cc(C(=O)[O-])c23)CC1.[Na+]` [Compound 388], the Activity was “++ (activity>50% of CFTR amplifier+VX-809 (3 uM) with compound at 10 uM and Compound A at 3 uM)”.
With `Cc1ccc(OC(C)c2ccccc2)c2c(C(=O)[O-])cc(-c3nc4ccccc4n3C)nc12.[Na+]` (stereo not shown) [Compound 407] the Activity was “+ (activity<50% of an CFTR amplifier (Compound A)+VX-809 (3 uM) with compound at 10 uM and Compound A at 3 uM)”.
